Assay results from ChEMBL document CHEMBL1201862, “PubChem BioAssay data set” (2004).
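Compound exposure: 48 hours, 5 concentrations, 96-well plates. GI50: concentration for 50% inhibition of growth.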 The source made the active and inactive calls. No stated cut-off is given here; in the data, active = GI50 up to about 1.1 µM and inactive = higher.

What was measured:
Test in all cases: DTP human tumour cell line panel, 48 h
TK-10 = tested on: TK-10
U-251 = tested on: U-251
SF-268 = tested on: SF-268
HL-60 = tested on: HL-60
SK-OV-3 = tested on: SK-OV-3
NCI-H23 = tested on: NCI-H23
OVCAR-8 = tested on: OVCAR-8
HOP-92 = tested on: HOP-92
NCI/ADR-RES = tested on: NCI/ADR-RES
T47D = tested on: T47D
OVCAR-3 = tested on: OVCAR-3
OVCAR-5 = tested on: OVCAR-5
RPMI-8226 = tested on: RPMI-8226
A498 = tested on: A498
SN12C = tested on: SN12C
RXF 393 = tested on: RXF 393
EKVX = tested on: EKVX
SF-539 = tested on: SF-539
Malme-3M = tested on: Malme-3M
LOX IMVI = tested on: LOX IMVI
HCT-116 = tested on: HCT-116
MCF7 = tested on: MCF7
UACC-257 = tested on: UACC-257
SNB-75 = tested on: SNB-75
COLO 205 = tested on: COLO 205
M14 = tested on: M14
PC-3 = tested on: PC-3
MDA-MB-435 = tested on: MDA-MB-435
HCT-15 = tested on: HCT-15
NCI-H226 = tested on: NCI-H226
SK-MEL-5 = tested on: SK-MEL-5
UACC-62 = tested on: UACC-62
IGROV-1 = tested on: IGROV-1
MDA-MB-231 = tested on: MDA-MB-231
Hs-578T = tested on: Hs-578T
786-0 = tested on: 786-0
UO-31 = tested on: UO-31
MOLT-4 = tested on: MOLT-4
MDA-N = tested on: MDA-N
CCRF-CEM = tested on: CCRF-CEM
OVCAR-4 = tested on: OVCAR-4
KM12 = tested on: KM12
SK-MEL-28 = tested on: SK-MEL-28
BT-549 = tested on: BT-549
DU-145 = tested on: DU-145
SW-620 = tested on: SW-620
SNB-19 = tested on: SNB-19
SF-295 = tested on: SF-295
ACHN = tested on: ACHN
HOP-62 = tested on: HOP-62
A549 = tested on: A549
CAKI-1 = tested on: CAKI-1
NCI-H460 = tested on: NCI-H460
HT-29 = tested on: HT-29
K562 = tested on: K562
SK-MEL-2 = tested on: SK-MEL-2
HCC 2998 = tested on: HCC 2998
NCI-H522 = tested on: NCI-H522
SR = tested on: SR

## C1=C(c2ccccc2)SC=C(c2ccccc2)S1
TK-10
  GI50: 28.8 µM (inactive)
U-251
  GI50: 38.4 µM (inactive)
SF-268
  GI50: 28.3 µM (inactive)
HL-60
  GI50: 65.9 µM (inactive)
SK-OV-3
  GI50: 27.5 µM (inactive)
NCI-H23
  GI50: 72.8 µM (inactive)
OVCAR-8
  GI50: 44.8 µM (inactive)
HOP-92
  GI50: 17.1 µM (inactive)
NCI/ADR-RES
  GI50: 19.9 µM (inactive)
T47D
  GI50: 53.3 µM (inactive)
OVCAR-3
  GI50: 33.7 µM (inactive)
OVCAR-5
  GI50: 44.4 µM (inactive)
RPMI-8226
  GI50: 33.3 µM (inactive)
A498
  GI50: 17.9 µM (inactive)
SN12C
  GI50: 29.9 µM (inactive)
RXF 393
  GI50: 1.05 µM (active)
EKVX
  GI50: 24.1 µM (inactive)
SF-539
  GI50: 31.7 µM (inactive)
Malme-3M
  GI50: 45.5 µM (inactive)
LOX IMVI
  GI50: 36.9 µM (inactive)
HCT-116
  GI50: 44.5 µM (inactive)
MCF7
  GI50: 16.9 µM (inactive)
UACC-257
  GI50: 57.7 µM (inactive)
SNB-75
  GI50: 1.68 µM (inactive)
COLO 205
  GI50: 30.1 µM (inactive)
M14
  GI50: 39.8 µM (inactive)
PC-3
  GI50: > 100 µM (inactive)
MDA-MB-435
  GI50: 5.48 µM (inactive)
HCT-15
  GI50: 26.2 µM
NCI-H226
  GI50: 29 µM (inactive)
SK-MEL-5
  GI50: 19.6 µM (inactive)
UACC-62
  GI50: 35.9 µM (inactive)
IGROV-1
  GI50: 19.9 µM (inactive)
MDA-MB-231
  GI50: 32.2 µM (inactive)
Hs-578T
  GI50: 44 µM (inactive)
786-0
  GI50: > 100 µM (inactive)
UO-31
  GI50: 60.5 µM (inactive)
MOLT-4
  GI50: 25.3 µM (inactive)
MDA-N
  GI50: 6.17 µM (inactive)
CCRF-CEM
  GI50: 57.1 µM (inactive)
OVCAR-4
  GI50: 32.4 µM (inactive)
KM12
  GI50: 16.9 µM (inactive)
SK-MEL-28
  GI50: 49 µM (inactive)
BT-549
  GI50: 17.9 µM (inactive)
DU-145
  GI50: > 100 µM (inactive)
SW-620
  GI50: 25.9 µM (inactive)
SNB-19
  GI50: > 100 µM (inactive)
SF-295
  GI50: 29.2 µM (inactive)
ACHN
  GI50: 60.5 µM (inactive)
HOP-62
  GI50: > 100 µM (inactive)
A549
  GI50: 32.1 µM (inactive)
CAKI-1
  GI50: 60.4 µM (inactive)
NCI-H460
  GI50: 29.5 µM (inactive)
HT-29
  GI50: 24.9 µM (inactive)
K562
  GI50: 21 µM (inactive)

## COc1cc2c(cc1O)C1CC(CC3CCCCN31)OC(=O)/C=C\c1ccc(O)c-2c1 (stereo unspecified)
SK-MEL-2
  GI50: 26.5 µM (inactive)
TK-10
  GI50: 26.4 µM (inactive)
U-251
  GI50: 35 µM (inactive)
SF-268
  GI50: 24.9 µM (inactive)
HL-60
  GI50: 27.8 µM (inactive)
SK-OV-3
  GI50: 31.2 µM (inactive)
NCI-H23
  GI50: 64 µM (inactive)
OVCAR-8
  GI50: 21.6 µM (inactive)
HOP-92
  GI50: 15.5 µM (inactive)
NCI/ADR-RES
  GI50: 23.8 µM (inactive)
T47D
  GI50: 18.5 µM (inactive)
OVCAR-3
  GI50: 21.3 µM (inactive)
OVCAR-5
  GI50: 58.3 µM (inactive)
RPMI-8226
  GI50: 27 µM (inactive)
A498
  GI50: 12.9 µM (inactive)
SN12C
  GI50: 37.2 µM (inactive)
EKVX
  GI50: 41.6 µM (inactive)
SF-539
  GI50: 15.8 µM (inactive)
Malme-3M
  GI50: 19.5 µM (inactive)
LOX IMVI
  GI50: 16.7 µM (inactive)
HCT-116
  GI50: 27.9 µM (inactive)
MCF7
  GI50: 13.9 µM (inactive)
UACC-257
  GI50: 19.1 µM (inactive)
SNB-75
  GI50: 10.2 µM (inactive)
COLO 205
  GI50: 25.2 µM (inactive)
M14
  GI50: 19.6 µM (inactive)
PC-3
  GI50: 28.5 µM (inactive)
MDA-MB-435
  GI50: 21.9 µM (inactive)
HCT-15
  GI50: 36.9 µM
NCI-H226
  GI50: 41.4 µM (inactive)
SK-MEL-5
  GI50: 16.8 µM (inactive)
UACC-62
  GI50: 18 µM (inactive)
IGROV-1
  GI50: 24.7 µM (inactive)
MDA-MB-231
  GI50: 24.3 µM (inactive)
Hs-578T
  GI50: 18.3 µM (inactive)
HCC 2998
  GI50: 18.2 µM (inactive)
786-0
  GI50: 32.4 µM (inactive)
UO-31
  GI50: 25.9 µM (inactive)
MOLT-4
  GI50: 20 µM (inactive)
MDA-N
  GI50: 35.9 µM (inactive)
CCRF-CEM
  GI50: 30.1 µM (inactive)
OVCAR-4
  GI50: 27.3 µM (inactive)
KM12
  GI50: 16.4 µM (inactive)
SK-MEL-28
  GI50: 28.3 µM (inactive)
BT-549
  GI50: 27.9 µM (inactive)
DU-145
  GI50: 27.7 µM (inactive)
SW-620
  GI50: 51.2 µM (inactive)
SNB-19
  GI50: 63 µM (inactive)
SF-295
  GI50: 13.5 µM (inactive)
ACHN
  GI50: 31.6 µM (inactive)
A549
  GI50: 57 µM (inactive)
CAKI-1
  GI50: 23.1 µM (inactive)
NCI-H460
  GI50: 37.1 µM (inactive)
NCI-H522
  GI50: 26.5 µM (inactive)
HT-29
  GI50: 20.5 µM (inactive)
K562
  GI50: 28 µM (inactive)

## CC(O)C1OC(O)C2OC(C)(C)OC12 (stereo unspecified)
SK-MEL-2
  GI50: > 100 µM (inactive)
TK-10
  GI50: > 100 µM (inactive)
U-251
  GI50: > 100 µM (inactive)
SF-268
  GI50: > 100 µM (inactive)
HL-60
  GI50: > 100 µM (inactive)
SK-OV-3
  GI50: > 100 µM (inactive)
NCI-H23
  GI50: > 100 µM (inactive)
OVCAR-8
  GI50: > 100 µM (inactive)
NCI/ADR-RES
  GI50: > 100 µM (inactive)
T47D
  GI50: > 100 µM (inactive)
OVCAR-3
  GI50: > 100 µM (inactive)
OVCAR-5
  GI50: > 100 µM (inactive)
RPMI-8226
  GI50: > 100 µM (inactive)
A498
  GI50: > 100 µM (inactive)
SN12C
  GI50: > 100 µM (inactive)
EKVX
  GI50: > 100 µM (inactive)
SF-539
  GI50: > 100 µM (inactive)
LOX IMVI
  GI50: > 100 µM (inactive)
HCT-116
  GI50: > 100 µM (inactive)
MCF7
  GI50: > 100 µM (inactive)
UACC-257
  GI50: > 100 µM (inactive)
SNB-75
  GI50: > 100 µM (inactive)
COLO 205
  GI50: > 100 µM (inactive)
M14
  GI50: > 100 µM (inactive)
PC-3
  GI50: > 100 µM (inactive)
MDA-MB-435
  GI50: > 100 µM (inactive)
HCT-15
  GI50: > 100 µM
NCI-H226
  GI50: > 100 µM (inactive)
SK-MEL-5
  GI50: > 100 µM (inactive)
UACC-62
  GI50: > 100 µM (inactive)
IGROV-1
  GI50: > 100 µM (inactive)
MDA-MB-231
  GI50: > 100 µM (inactive)
Hs-578T
  GI50: > 100 µM (inactive)
786-0
  GI50: > 100 µM (inactive)
UO-31
  GI50: > 100 µM (inactive)
MOLT-4
  GI50: > 100 µM (inactive)
MDA-N
  GI50: > 100 µM (inactive)
CCRF-CEM
  GI50: > 100 µM (inactive)
OVCAR-4
  GI50: > 100 µM (inactive)
KM12
  GI50: > 100 µM (inactive)
SK-MEL-28
  GI50: > 100 µM (inactive)
BT-549
  GI50: > 100 µM (inactive)
DU-145
  GI50: > 100 µM (inactive)
SW-620
  GI50: > 100 µM (inactive)
SNB-19
  GI50: > 100 µM (inactive)
SF-295
  GI50: > 100 µM (inactive)
ACHN
  GI50: > 100 µM (inactive)
HOP-62
  GI50: > 100 µM (inactive)
A549
  GI50: > 100 µM (inactive)
CAKI-1
  GI50: > 100 µM (inactive)
SR
  GI50: > 100 µM (inactive)
NCI-H460
  GI50: > 100 µM (inactive)
NCI-H522
  GI50: > 100 µM (inactive)
HT-29
  GI50: > 100 µM (inactive)
K562
  GI50: > 100 µM (inactive)
